Here are results for eleven molecules from US10004701B2, “Methods and compositions for treating infection” (UNIVERSITY OF ROCHESTER, priority 2012, dated 2018).

Molecules are shown by their SMILES. Counter-ions that a name gives are not always drawn. Like-named read-outs stand apart in the source and are kept apart here.

Experiment in all cases: AK assay 384-well format, Prestwick library screening
Assay [1] has as its system E. cloacae. The class given is cell-based, Enterobacter cloacae. The conditions noted are these: 50 μM final drug concentration; for fold induction at 50 µM: Enterobacter cloacae, 3 h.
Assay [2] concerns S. aureus strain USA300-0114. The class given is cell-based, Staphylococcus aureus. The note with it: 50 μM final drug concentration; for fold induction at 50 µM: Staphylococcus aureus, USA300, 3 h.
Assay [3] relates to A. baumannii strain 98-37-09. In kind it is cell-based, Acinetobacter baumannii. The note with it: 50 μM final drug concentration; for fold induction at 50 µM: Acinetobacter baumannii, 983709, 3 h.
The test system of assay [4] is E. coli. The class given is cell-based, Escherichia coli. The note with it: 50 μM final drug concentration; for fold induction at 50 µM: Escherichia coli, 3 h.
For assay [5], the system named is E. faecium. The class given is cell-based, Enterococcus faecium. The note with it: 50 μM final drug concentration; for fold induction at 50 µM: Enterococcus faecium, 3 h.
Assay [6] has as its system P. aeruginosa. The class given is cell-based, Pseudomonas aeruginosa. The note with it: 50 μM final drug concentration; for fold induction at 50 µM: Pseudomonas aeruginosa, 3 h.
Assay [7] concerns K. pneumoniae. The class given is cell-based, Klebsiella pneumoniae. The note with it: 50 μM final drug concentration; for fold induction at 50 µM: Klebsiella pneumoniae, 3 h.
[8] abbreviates: planktonic, […], read-out: AK-based Prestwick Library Screening Results, E. cloacae (fold increase in extracellular AK activity).
Setting [9] is: planktonic, […], read-out: AK-based Prestwick Library Screening Results, S. aureus (fold increase in extracellular AK activity).
[10] abbreviates: planktonic, […], read-out: AK-based Prestwick Library Screening Results, A. baumannii (fold increase in extracellular AK activity).
[11] abbreviates: planktonic, […], read-out: AK-based Prestwick Library Screening Results, E. coli (fold increase in extracellular AK activity).
Where [12] appears, read: planktonic, […], read-out: AK-based Prestwick Library Screening Results, E. faecium (fold increase in extracellular AK activity).
Where [13] appears, read: planktonic, […], read-out: AK-based Prestwick Library Screening Results, P. aeruginosa (fold increase in extracellular AK activity).
[14] abbreviates: planktonic, […], read-out: AK-based Prestwick Library Screening Results, K. pneumoniae (fold increase in extracellular AK activity).
Where [15] appears, read: 384-well format, cutoff for positive-scoring molecules 3-fold increase, read-out: AK-based Prestwick Library Screening Results, E. cloacae (increase in extracellular AK activity).
The mark [16] stands for this setting: 384-well format, cutoff for positive-scoring molecules 3-fold increase, read-out: AK-based Prestwick Library Screening Results, S. aureus (increase in extracellular AK activity).
[17] abbreviates: 384-well format, cutoff for positive-scoring molecules 3-fold increase, read-out: AK-based Prestwick Library Screening Results, A. baumannii (increase in extracellular AK activity).
Setting [18] is: 384-well format, cutoff for positive-scoring molecules 3-fold increase, read-out: AK-based Prestwick Library Screening Results, E. coli (increase in extracellular AK activity).
Setting [19] is: 384-well format, cutoff for positive-scoring molecules 3-fold increase, read-out: AK-based Prestwick Library Screening Results, E. faecium (increase in extracellular AK activity).
Setting [20] is: 384-well format, cutoff for positive-scoring molecules 3-fold increase, read-out: AK-based Prestwick Library Screening Results, P. aeruginosa (increase in extracellular AK activity).
Setting [21] is: 384-well format, cutoff for positive-scoring molecules 3-fold increase, read-out: AK-based Prestwick Library Screening Results, K. pneumoniae (increase in extracellular AK activity).
[22] abbreviates: planktonic E. cloacae, cutoff for positive-scoring molecules 3-fold increase, read-out: AK-based Prestwick Library Screening Results, E. cloacae (increase in extracellular AK activity).
Where [23] appears, read: planktonic S. aureus, cutoff for positive-scoring molecules 3-fold increase, read-out: AK-based Prestwick Library Screening Results, S. aureus (increase in extracellular AK activity).
Setting [24] is: planktonic A. baumannii, cutoff for positive-scoring molecules 3-fold increase, read-out: AK-based Prestwick Library Screening Results, A. baumannii (increase in extracellular AK activity).
The mark [25] stands for this setting: planktonic E. coli, cutoff for positive-scoring molecules 3-fold increase, read-out: AK-based Prestwick Library Screening Results, E. coli (increase in extracellular AK activity).
Where [26] appears, read: planktonic E. faecium, cutoff for positive-scoring molecules 3-fold increase, read-out: AK-based Prestwick Library Screening Results, E. faecium (increase in extracellular AK activity).
[27] abbreviates: planktonic P. aeruginosa, cutoff for positive-scoring molecules 3-fold increase, read-out: AK-based Prestwick Library Screening Results, P. aeruginosa (increase in extracellular AK activity).
Where [28] appears, read: planktonic K. pneumoniae, cutoff for positive-scoring molecules 3-fold increase, read-out: AK-based Prestwick Library Screening Results, K. pneumoniae (increase in extracellular AK activity).

In the case of `C#CCN(C)[C@H](C)Cc1ccccc1` [Selegiline hydrochloride], the fold induction at 50 µM in assay [1] (setting [8]) worked out at 1.6; in assay [2] (setting [9]) it was 1.1; in assay [3] (setting [10]), 1.1; in assay [4] (setting [11]), 1.3; in assay [5] (setting [12]) it was 1; in assay [6] (setting [13]), 1.2. The fold induction at 50 µM in assay [7] (setting [14]) is 1.2.
With `O=C(Nc1ccc([N+](=O)[O-])cc1Cl)c1cc(Cl)ccc1O` [Niclosamide], the fold induction at 50 µM in assay [1] (setting [15]) is 0.5; in assay [2] (setting [16]) it was 0.4; in assay [3] (setting [17]), 0.2; in assay [4] (setting [18]) it was 0.1; in assay [5] (setting [19]), 0.1; in assay [6] (setting [20]), 0.1. In addition, in assay [7] (setting [21]), the fold induction at 50 µM turned out to be 0.1.
For the molecule `COc1ccc(OC)c(C(O)C(C)N)c1` (centres unmarked) [Methoxamine hydrochloride], the fold induction at 50 µM in assay [1] (planktonic, cutoff for positive 3-fold increase, read-out: AK-based Prestwick Library Screening Results, E. cloacae (fold increase in extracellular AK activity)) was determined as 1.4; in assay [2] (planktonic, cutoff for positive 3-fold increase, read-out: AK-based Prestwick Library Screening Results, S. aureus (fold increase in extracellular AK activity)), 0.9; in assay [3] (planktonic, cutoff for positive 3-fold increase, read-out: AK-based Prestwick Library Screening Results, A. baumannii (fold increase in extracellular AK activity)) it was 1; in assay [4] (planktonic, cutoff for positive 3-fold increase, read-out: AK-based Prestwick Library Screening Results, E. coli (fold increase in extracellular AK activity)), 1.1; in assay [5] (planktonic, cutoff for positive 3-fold increase, read-out: AK-based Prestwick Library Screening Results, E. faecium (fold increase in extracellular AK activity)), 1; in assay [6] (planktonic, cutoff for positive 3-fold increase, read-out: AK-based Prestwick Library Screening Results, P. aeruginosa (fold increase in extracellular AK activity)) it was 1.2. In addition, the fold induction at 50 µM in assay [7] (planktonic, cutoff for positive 3-fold increase, read-out: AK-based Prestwick Library Screening Results, K. pneumoniae (fold increase in extracellular AK activity)) amounted to 1.
In the case of `CS(=O)(=O)c1ccc([C@@H](O)[C@@H](CO)NC(=O)C(Cl)Cl)cc1` [Thiamphenicol], the fold induction at 50 µM in assay [1] (setting [15]) came to 1.4; in assay [2] (setting [16]), 8.7; in assay [3] (setting [17]), 0.9; in assay [4] (setting [18]) it was 0.9; in assay [5] (setting [19]) it was 0.9; in assay [6] (setting [20]), 0.8. In assay [7] (setting [21]), the fold induction at 50 µM was 0.4.
As for `COc1cc(OC)c(C(=O)CCCN2CCCC2)c(OC)c1` [Buflomedil hydrochloride], the fold induction at 50 µM in assay [1] (setting [22]) was found to be 0.9; in assay [2] (setting [23]) it was 0.6; in assay [3] (setting [24]), 0.7; in assay [4] (setting [25]) it was 0.8; in assay [5] (setting [26]), 0.8; in assay [6] (setting [27]), 0.8. For the same molecule, the fold induction at 50 µM in assay [7] (setting [28]) was found to be 0.6.
As to `CN1C2CC(=O)CC1C(O)C2` (centres unmarked) [Compound 6-Hydroxytropinone], the “AK-based Prestwick Library Screening Results, E. cloacae (fold increase in extracellular AK activity)” value in assay [1] ([…]) is given as 0.4. In assay [2] ([…]), the “AK-based Prestwick Library Screening Results, S. aureus (fold increase in extracellular AK activity)” value is reported as 0.4. In addition, the “AK-based Prestwick Library Screening Results, A. baumannii (fold increase in extracellular AK activity)” value in assay [3] ([…]) was 0.5. The “AK-based Prestwick Library Screening Results, E. coli (fold increase in extracellular AK activity)” value in assay [4] ([…]) is listed as 0.5. Further, the “AK-based Prestwick Library Screening Results, E. faecium (fold increase in extracellular AK activity)” value in assay [5] ([…]) stood at 0.9. Further, the “AK-based Prestwick Library Screening Results, P. aeruginosa (fold increase in extracellular AK activity)” value in assay [6] ([…]) amounted to 0.4. The “AK-based Prestwick Library Screening Results, K. pneumoniae (fold increase in extracellular AK activity)” value in assay [7] ([…]) was found to be 0.5.
Consider `CC1(C)S[C@@H]2[C@H](NC(=O)[C@H](N)c3ccc(O)cc3)C(=O)N2[C@H]1C(=O)O` [Amoxicillin], for which the fold induction at 50 µM turned out to be 1 in assay [1] (setting [22]); 0.4 in assay [2] (setting [23]); 1.7 in assay [3] (setting [24]); 10.6 in assay [4] (setting [25]); 1.4 in assay [5] (setting [26]); 0.7 in assay [6] (setting [27]). Also, the fold induction at 50 µM in assay [7] (setting [28]) worked out at 0.7.
Take `NCCc1cc[nH]n1` [Betazole hydrochloride]: the fold induction at 50 µM amounted to 1.4 in assay [1] (setting [15]); 1.2 in assay [2] (setting [16]); 1.2 in assay [3] (setting [17]); 1.3 in assay [4] (setting [18]); 1 in assay [5] (setting [19]); 1 in assay [6] (setting [20]). The fold induction at 50 µM in assay [7] (setting [21]) is 0.9.
Take `CCCCOC(=O)c1ccc(O)cc1` [Butylparaben]: the fold induction at 50 µM in assay [1] (setting [8]) came to 1; in assay [2] (setting [9]), 0.7; in assay [3] (setting [10]), 0.6; in assay [4] (setting [11]) it was 0.5; in assay [5] (setting [12]) it was 0.5; in assay [6] (setting [13]), 0.6. The fold induction at 50 µM in assay [7] (setting [14]) was determined as 0.4.
For the molecule `CC(C)[N+](C)(CCC(C(N)=O)(c1ccccc1)c1ccccc1)C(C)C` [Isopropamide iodide], the fold induction at 50 µM in assay [1] (cutoff for positive-scoring molecules 3-fold increase, read-out: AK-based Prestwick Library Screening Results, E. cloacae (fold increase in extracellular AK activity)) came to 1.5; in assay [2] (cutoff for positive-scoring molecules 3-fold increase, read-out: AK-based Prestwick Library Screening Results, S. aureus (fold increase in extracellular AK activity)), 1.2; in assay [3] (cutoff for positive-scoring molecules 3-fold increase, read-out: AK-based Prestwick Library Screening Results, A. baumannii (fold increase in extracellular AK activity)), 1; in assay [4] (cutoff for positive-scoring molecules 3-fold increase, read-out: AK-based Prestwick Library Screening Results, E. coli (fold increase in extracellular AK activity)), 1.3; in assay [5] (cutoff for positive-scoring molecules 3-fold increase, read-out: AK-based Prestwick Library Screening Results, E. faecium (fold increase in extracellular AK activity)) it was 1.1; in assay [6] (cutoff for positive-scoring molecules 3-fold increase, read-out: AK-based Prestwick Library Screening Results, P. aeruginosa (fold increase in extracellular AK activity)) it was 1.2. For the same molecule, the fold induction at 50 µM in assay [7] (cutoff for positive-scoring molecules 3-fold increase, read-out: AK-based Prestwick Library Screening Results, K. pneumoniae (fold increase in extracellular AK activity)) was determined as 1.1.
On to `CC(NCCc1ccc(O)cc1)C(O)c1ccc(O)cc1` (centres unmarked) [Ritodrine hydrochloride], for which the fold induction at 50 µM in assay [1] (setting [22]) stood at 0.9; in assay [2] (setting [23]), 0.5; in assay [3] (setting [24]), 0.8; in assay [4] (setting [25]), 0.8; in assay [5] (setting [26]) it was 0.9; in assay [6] (setting [27]), 0.9. Also, the fold induction at 50 µM in assay [7] (setting [28]) was 0.7.
